From PMC7011792 (Journal of Enzyme Inhibition and Medicinal Chemistry, 2017) come the findings set out here.

Data set [1] has as its target T1, AChE (EC 3.1.1.7) from human (Homo sapiens, UniProt P22303).
T1 construct: purchased Sigma-Aldrich C1682
The data set can be described thus: Human AChE inhibition, Ellman's method. It counts as biochemical. The procedure: (§1) AChE (EC 3.1.1.7, Type VI-S, from electric eel, C3389; from human, C1682) and BuChE (EC 3.1.1.8, from equine serum, C0663; from human, B4186), 5,5'-dithiobis (2-nitrobenzoic acid) (DTNB, D218200), acetylthiocholine iodide (ATC, A5751), and butyrylthiocholine iodide (BTC, B3253) were obtained from Sigma-Aldrich (St. Louis, MO).
(§2) The inhibitory effects of the synthesised compounds in this paper were evaluated according to our previously reported method. Briefly, AChE/BuChE stock solution was diluted to give 2.5 units/mL (for eeAChE, eqBuChE, and huAChE) or 0.5 units/mL for huBuChE. ATC/BTC iodide solution (0.075 M) was prepared in deionised water. DTNB solution (0.01 M) was prepared using water containing 0.15% (w/v) sodium bicarbonate. The assay buffer was prepared as follows: potassium dihydrogen phosphate (1.36 g, 10 mmol) was dissolved in 100 ml of water. The pH of the solution was then adjusted to 8.0 ± 0.1 with KOH. Stock solutions of the test samples were dissolved in ethanol to give a final concentration of 10^−4 M when diluted to the final volume of 3.32 ml. For each compound, a dilution series of at least five different concentrations (normally 10^−5–10^−9 M) were prepared.
(§3) For measurement, a cuvette containing 3.0 ml of phosphate buffer, 100 µL of AChE or BuChE, 100 µL of DTNB, and 100 µL of the test compound solution were added in sequence. The reaction was initiated after adding 20 µL of ATC or BTC, and the solution was mixed immediately. Two minutes (eeAChE and eqBuChE) or 15 min (huAChE and huBuChE) after ATC or BTC addition, the absorption was measured at 25 °C (eeAChE and eqBuChE) or 37 °C (huAChE and huBuChE) at 412 nm, using a Shimadzu 160 spectrophotometer. For the reference value, 100 µL of water replaced the test compound solution. For the blank control, additionally 100 µL of water replaced the enzyme solution. The measurement for each concentration was assayed in triplicate. GraphPad Prism 5 was used for data processing. The inhibition curve was fitted by plotting percentage enzyme activity (100% for the reference) versus logarithm of test compound concentration. The IC50 values were calculated according to the curve, and the data were shown in mean ± SEM.
(In Ellman's method for cholinesterases, released thiocholine reacts with DTNB.)

Data set [2] addresses T2, BuChE (EC 3.1.1.8) from human (Homo sapiens, UniProt P06276).
T2 construct: purchased Sigma-Aldrich B4186
The data set can be described thus: Human BuChE inhibition, Ellman's method. The format is biochemical. Conditions: huBuChE; mean ± SEM. The procedure:
as §1, §2
as §3, with “The inhibition curve was fitted by plotting percentage enzyme activity (100% for the reference) versus logarithm of test compound concentration.” left out

The target in the next data set is T3, huAChE (Homo sapiens, UniProt P22303).
T3 construct: purchased Sigma-Aldrich C1682
T3 sequence (P22303 32-614): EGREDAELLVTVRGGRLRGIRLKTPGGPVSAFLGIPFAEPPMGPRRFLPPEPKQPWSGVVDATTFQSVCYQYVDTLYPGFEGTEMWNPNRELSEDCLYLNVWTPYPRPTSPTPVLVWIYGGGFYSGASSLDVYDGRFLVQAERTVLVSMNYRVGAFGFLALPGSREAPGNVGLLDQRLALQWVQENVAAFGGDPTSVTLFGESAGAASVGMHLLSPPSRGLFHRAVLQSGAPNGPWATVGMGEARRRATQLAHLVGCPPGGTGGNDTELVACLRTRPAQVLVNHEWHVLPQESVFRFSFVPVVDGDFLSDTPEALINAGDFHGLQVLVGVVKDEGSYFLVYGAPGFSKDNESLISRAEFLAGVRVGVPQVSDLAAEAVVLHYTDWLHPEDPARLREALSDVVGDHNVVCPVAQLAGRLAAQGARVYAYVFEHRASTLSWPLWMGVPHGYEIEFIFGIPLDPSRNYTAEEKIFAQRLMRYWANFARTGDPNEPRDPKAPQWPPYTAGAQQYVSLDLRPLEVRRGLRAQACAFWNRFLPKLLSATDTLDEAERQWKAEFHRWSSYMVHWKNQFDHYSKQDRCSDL
The data set can be described thus: Kinetic study of huAChE inhibition (Lineweaver-Burk, Michaelis-Menten). It counts as biochemical. To be noted: Lineweaver–Burk plots, 1, 2, 4, 10 nM. The procedure: (§4) Kinetic studies were performed according to methods reported previously. The concentrations of the substrate ATC or BTC were prepared as 25, 50, 90, 150, 226, and 452 µM. Different concentrations of compound 19 with 0, 1, 2, 4, 10 nM, were also prepared by stock solution. For measurement, the enzymatic reaction was extended to 20 min (huAChE and huBuChE) before the determination of the absorption. Graph Pad Prism 5 was applied for data processing. Vmax and Km values of the Michaelis–Menten kinetics were determined by nonlinear regression from substrate-velocity curves, while Lineweaver–Burk plots were fitted by using linear regression method.

For the next data set, the system named is ICR mice. The method, then:
The activity of AST and ALT, two indicators of liver damage, was determined using corresponding assay kit (EF551 and EF550 for ALT, EH027, and EF548 for AST, Wako, Japan).
One hour after the collection of retrobulbar blood, mice were sacrificed and livers were harvested for morphological studies by using immunohistochemical method. Two 3 mm sections of each liver extending from the hilus to the margin of the left lateral lobe were isolated by Ultra-Thin Semiautomatic Microtome (Leica RM2245, Germany) and immediately placed in 10% buffered formaldehyde, fixed for two days, and embedded together in one paraffin block by using Paraffin Embedding Station (Leica EG1150H, Germany). Subsequently, 5 µm sections were prepared from these paraffin blocks. They were deparaffinated and stained with hematoxylin and eosin or by means of the periodic acid-Schiff procedure for glycogen.

A further data set addresses T4, huBuChE (Homo sapiens, UniProt P06276).
T4 construct: purchased Sigma-Aldrich B4186
The data set can be described thus: Kinetic study of huBuChE inhibition (Lineweaver-Burk, Michaelis-Menten). Conditions: Lineweaver–Burk plots, 1, 2, 4, 10 nM. It counts as biochemical. The procedure: as §4

A further data set concerns the target T5, Aβ1–42 (Homo sapiens, UniProt P05067).
T5 construct: aliquots of 2.0 µL of Aβ1–42 (AS-64129–05 Anaspec Inc.); purchased Anaspec Inc. AS-64129–05
The data set can be described thus: Inhibition of self-induced Aβ1–42 aggregation (Thioflavin T assay). The format is biochemical. Conditions: compound 25 μM, 24 h, read-out: Inhibitory rate on self-induced Aβ1-42 aggregation. The method, then:
Inhibitory effects of the compounds on self-induced Aβ1–42 aggregation were evaluated using a Thioflavin T (ThT)-(T3516, Sigma-Aldrich, St. Louis, MO) binding assay according to the previously reported method. […] The Aβ1–42 and the test sample solutions were incubated for 24 h at the room temperature.
The inhibitory rate of Aβ1–42 self-induced aggregation was calculated according to the following equation: (1-IFi/IFc) × 100%. IFi and IFc were the fluorescence intensities in the presence and absence of inhibitors, respectively, after subtracting the background fluorescence of the 5 mM Thioflavin T solution. Each measurement was repeated in triplicate. The inhibitory rate of the test compound was shown in mean ± SD.

The mark [3] stands for this setting: 22 h after ig administration, 151.5 µmol/kg, mice serum, n = 6.
The mark [4] stands for this setting: 36 h after ig administration, 151.5 µmol/kg, mice serum, n = 6.

Like-named read-outs stand apart in the source and are kept apart here.

T1 sequence (P22303 32-614): as above
T5 sequence (P05067 672-713): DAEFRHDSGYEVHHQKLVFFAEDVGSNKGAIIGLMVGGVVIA
T4 sequence (P06276 29-602): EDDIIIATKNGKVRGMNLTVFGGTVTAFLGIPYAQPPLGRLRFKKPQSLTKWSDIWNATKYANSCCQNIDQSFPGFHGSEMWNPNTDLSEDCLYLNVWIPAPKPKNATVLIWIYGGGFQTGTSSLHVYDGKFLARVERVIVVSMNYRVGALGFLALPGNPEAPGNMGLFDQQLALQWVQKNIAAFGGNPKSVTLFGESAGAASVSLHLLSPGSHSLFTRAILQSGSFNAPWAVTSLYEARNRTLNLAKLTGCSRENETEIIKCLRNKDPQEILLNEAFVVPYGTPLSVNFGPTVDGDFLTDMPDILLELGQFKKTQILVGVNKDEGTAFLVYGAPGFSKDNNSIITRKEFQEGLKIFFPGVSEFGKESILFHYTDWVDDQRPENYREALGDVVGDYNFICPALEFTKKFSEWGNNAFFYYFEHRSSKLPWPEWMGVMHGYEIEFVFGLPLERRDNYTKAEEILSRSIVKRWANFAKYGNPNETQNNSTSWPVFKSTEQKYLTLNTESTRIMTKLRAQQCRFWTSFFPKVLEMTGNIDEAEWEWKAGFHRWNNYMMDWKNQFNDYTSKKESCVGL
T2 sequence (P06276 29-602): as above

With `O=C(/C=C/c1ccc([N+](=O)[O-])cc1)NCCCCCCNc1c2c(nc3ccccc13)CCCC2` [Compound 19, (E)-3-(4-nitrophenyl)-N-(6-((1,2,3,4-tetrahydroacridin-9-yl)amino)hexyl)acrylamide], the IC50 in data set [1] (huAChE, mean ± SEM) was 10.2 nM; in data set [2], 6.3 nM. Moreover, in data set [1] (huBuChE IC50 / huAChE IC50), the “Selectivity index (SI) = BuChE IC50/AChE IC50, human enzymes” value is reported as 0.6. On huAChE, the “type of inhibition on huAChE” value is reported as “noncompetitive”. Also, the “AST (U/L)” value was 119.6 ± 10.8 U/L in the data set with ICR mice (8 h after ig administration, 151.5 µmol/kg, mice serum, n = 6); 130.6 ± 8.2 U/L in the data set with ICR mice (setting [3]); 133.9 ± 13.5 U/L in the data set on ICR mice (setting [4]). The “ALT (U/L)” value with ICR mice (setting [3]) amounted to 44.4 ± 3.9 U/L; with ICR mice (setting [4]), 40.2 ± 2.5 U/L; in the data set with ICR mice (mouse, in vivo), 36.0 ± 2.9 U/L. Also, the “morphologic changes in liver” value in the data set with ICR mice (mouse, in vivo) is “did not cause remarkable morphologic changes in liver”. The “type of inhibition on huBuChE” value on huBuChE is listed as “mixed-type inhibition”. For the same molecule, on Aβ1–42, the inhibition at 25 µM came to 31.8%.

Usually IC50 stands for the point on the concentration scale where inhibition reaches its midpoint.
